What follows are molecules tested against human P2X3 receptor (Homo sapiens (Human), UniProt P56373) (assay: Evaluation of human P2X3 receptor inhibitory activity (Test Example 1)). Conditions: C6BU-1 cell transfected with human P2X3 receptor gene, FLIPR 384.
Type: cell-based
Summary of the method: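 FLIPR calcium read-out: signal taken as peak fluorescence after ATP addition divided by starting fluorescence, and IC50 calculated from it. Compound added 5 min before 150 nM ATP solution (pre-dispense stock) to Fluo-3-AM-loaded C6BU-1 cells stably transfected with human P2X3; HEPES buffer pH 7.5 with probenecid.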

human P2X3 receptor, sequence (P56373 whole entry): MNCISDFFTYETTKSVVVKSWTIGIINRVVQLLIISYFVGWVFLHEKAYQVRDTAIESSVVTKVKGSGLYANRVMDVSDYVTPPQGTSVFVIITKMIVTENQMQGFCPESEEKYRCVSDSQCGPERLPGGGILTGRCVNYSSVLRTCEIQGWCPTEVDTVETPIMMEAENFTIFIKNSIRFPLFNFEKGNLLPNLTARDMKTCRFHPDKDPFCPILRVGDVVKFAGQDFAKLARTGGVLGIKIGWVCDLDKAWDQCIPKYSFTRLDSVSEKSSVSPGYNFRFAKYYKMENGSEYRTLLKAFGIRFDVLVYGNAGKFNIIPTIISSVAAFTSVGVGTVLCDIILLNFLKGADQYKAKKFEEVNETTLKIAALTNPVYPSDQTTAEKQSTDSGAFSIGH

| SMILES | IC50 [nM] |
| --- | --- |
| CC(C)(Cn1c(=O)[nH]/c(=N\c2ccc(Oc3cccc(F)n3)cc2)n(Cc2ccc(Cl)cc2)c1=O)C(=O)O [Compound I-010] | 5 |
| COC(=O)CCn1c(=O)[nH]/c(=N\c2ccc(Oc3cccc(C(C)=O)n3)cc2)n(Cc2ccc(Cl)cc2)c1=O [Compound R-302] | 6 |
| C[C@@H](Cn1c(=O)[nH]/c(=N\c2ccc(Oc3ncccc3F)cc2)n(Cc2ccc(C(F)F)cc2)c1=O)C(=O)O [Compound I-169] | 21 |
| COC(=O)C(C)(C)Cn1c(=O)[nH]/c(=N\c2ccc(Oc3ccc(F)cn3)cc2)n(Cc2ccc(Cl)cc2)c1=O [Compound I-003] | 7 |
| C[C@@H](C(=O)O)[C@H](C)n1c(=O)[nH]/c(=N\c2ccc(Oc3cncc(F)c3)c(F)c2)n(Cc2ccc(Cl)cc2)c1=O [Compound R-189] | 8 |
| C[C@@H](Cn1c(=O)[nH]/c(=N\c2ccc(Oc3ccc(Cl)nn3)cc2)n(Cc2ccc(Cl)cc2)c1=O)C(=O)O [Compound R-197] | 7 |
| CCc1oc2ccc(/N=c3\[nH]c(=O)n(C[C@@H](O)CC(=O)O)c(=O)n3Cc3ccc(Cl)cc3)cc2c1C [Compound R-178] | 45 |
| COC(=O)CCn1c(=O)[nH]/c(=N\c2ccc(Oc3ccccn3)cc2)n(Cc2ccc(C)cc2)c1=O [Compound R-226] | 3 |
| CCc1ccc(Oc2ccc(/N=c3\[nH]c(=O)n(C[C@H](C)C(=O)O)c(=O)n3Cc3ccc(C)cc3)cc2)nc1 [Compound I-275] | 4 |
| C[C@@H](Cn1c(=O)[nH]/c(=N\c2ccc(Oc3cnccn3)cc2)n(Cc2ccc(Cl)cc2)c1=O)C(=O)O [Compound R-019] | 6 |
| COC(=O)C(C)(C)Cn1c(=O)[nH]/c(=N\c2ccc(Oc3ccc(F)cn3)cc2)n(Cc2ccc(C)cc2)c1=O [Compound I-037] | 6 |
| C[C@@H](Cn1c(=O)[nH]/c(=N\c2ccc(Oc3ccc(F)cn3)cc2)n(CC2CCC3(CC2)CC3)c1=O)C(=O)O [Compound I-235] | 9 |
| CCOC(=O)C1(Cn2c(=O)[nH]/c(=N\c3ccc(Oc4ncccc4F)cc3)n(Cc3ccc(Cl)cc3)c2=O)CC1 [Compound I-066] | 15 |
| O=c1[nH]/c(=N\c2ccc(Oc3ccc(F)cn3)cc2)n(Cc2ccc(Cl)cc2)c(=O)n1CC1(CO)COC1 [Compound R-084] | 6 |
| CC(C)(Cn1c(=O)[nH]/c(=N\c2ccc(Oc3ncccc3C#N)cc2)n(Cc2ccc(Cl)cc2)c1=O)C(=O)O [Compound I-048] | 30 |
| C[C@@H](C(=O)O)[C@H](C)n1c(=O)[nH]/c(=N\c2ccc(Oc3ccccn3)c(F)c2)n(Cc2ccc(Cl)cc2)c1=O [Compound I-231] | 7 |
| COC(=O)[C@@H](C)Cn1c(=O)[nH]/c(=N\c2ccc(Oc3ncccc3C(F)(F)F)cc2)n(Cc2ccc(Cl)cc2)c1=O [Compound I-030] | 176 |
| CC(C)n1c(=O)[nH]/c(=N\c2ccc(Oc3cccc(C#N)n3)c(Cl)c2)n(Cc2ccc(Cl)cc2)c1=O [Compound R-011] | 49 |
| Cc1ccc(Cn2c(=O)n(C[C@H](C)C(=O)O)c(=O)[nH]/c2=N\c2ccc(Oc3cccc(Cl)n3)cc2)cc1 [Compound I-119] | 6 |
| COC(=O)CCn1c(=O)[nH]/c(=N\c2ccc(Oc3ccc(C(C)=O)cn3)cc2)n(Cc2ccc(Cl)cc2)c1=O [Compound R-303] | 3 |
| Cc1ccc(Cn2c(=O)n(C[C@H](C)C(=O)O)c(=O)[nH]/c2=N\c2ccc(Oc3ccc(CF)cn3)cc2)cc1 [Compound I-242] | 8 |
| COC(=O)C(C)(C)Cn1c(=O)[nH]/c(=N\c2ccc(Oc3ncccc3F)cc2)n(Cc2ccc(Cl)cc2)c1=O [Compound I-007] | 9 |
| COC(=O)[C@@H](C)Cn1c(=O)[nH]/c(=N\c2ccc(Oc3cnccn3)cc2)n(Cc2ccc(Cl)cc2)c1=O [Compound R-017] | 6 |
| CCOC(=O)[C@H]1C[C@H](n2c(=O)[nH]/c(=N\c3ccc(Oc4ccc(F)cn4)cc3)n(Cc3ccc(C)cc3)c2=O)C1 [Compound I-176] | 7 |
| COC(=O)[C@@H](Cn1c(=O)[nH]/c(=N\c2ccc(Oc3ccccn3)cc2)n(Cc2ccc(Cl)cc2)c1=O)OC [Compound I-203] | 3 |

Reference: US10065941B2, “Aminotriazine derivative and pharmaceutical composition comprising the same” (Shionogi & Co., Ltd., priority 2013, dated 2018)
